# Measured values as given in paper PMC9321647, “Curcumin-Based β-Diketo Ligands for Ga^3+: Thermodynamic Investigation of Potential Metal-Based Drugs” (Pharmaceuticals, 2022).
# Like-named read-outs stand apart in the source and are kept apart here.
# Legend:
# [1] = tested on: HCT116 colon carcinoma cells; assay: MTT cell viability assay; assay type: cell-based, Human; conditions: Homo sapiens, HCT-116, HCT116, 48 h of treatment, mean
# Procedure: Human colorectal carcinoma HCT116 cells (#91091005, ECACC) were grown in an IMDM medium (Biowest) supplemented with 2 mM glutamine, 100 IU/mL penicillin, 100 μg/mL streptomycin and 10% FBS (Gibco). The cell lines were grown at 37 °C in a humidified incubator containing 5% CO2. The cells were verified to be mycoplasma-free and passaged < 3 months. The inhibition of cell proliferation was measured by colorimetric 3-(4,5-dimethylthiazol-2-yl)-2,5-diphenyltetrazolium bromide (MTT) assay. GI50 concentrations were determined using the CompuSyn software version 1.0 (ComboSyn, Inc., Paramus, NJ USA) (free download via www.combosyn.com, accessed on 30 May 2022), and statistical analyses were performed using the GraphPad PRISM software (version 6.01 for Windows, GraphPad Software, San Diego, California USA GraphPad Prism) using unpaired t-test. Data were considered to be statistically significant if p < 0.05 (*), p < 0.01 (**), p < 0.001(***) and p < 0.0001 (****).
# [2] = cited from earlier work
# transferrin = tested on: transferrin; parameters: method as in PMID 22800370; conditions: normal plasma bicarbonate concentrations; cited from earlier work
# [3] = Kinetic stability of ligands in simulated physiological conditions (UV-Vis); assay type: physicochemical
# Procedure: The chemical stability of ligands and metal complexes at the M:L 1:L molar ratio at 37 °C in darkness was evaluated by UV−Vis spectroscopy as a change in absorbance in the 250−600 nm range over an overall period of 8 h. Solutions (5.0 × 10^–5 mol L^–1) of the ligands were prepared in 0.1 mol L^–1 phosphate-buffered solution (PBS) at pH 7.4. Spectra were recorded every 30 min. All profiles were linearized as the hyperbolic function defined by Equation (2), which represents an empirical model that describes drug decomposition or release well [42]:(2) t/f%=at+b where f% is the percentage of the residual compound at time t (min) referred to the starting concentration at time zero determined by reading the absorbance at λmax.
# [4] = Keto-enol/diketo tautomer amounts by 1H NMR; assay type: physicochemical; conditions: molar percentage, MeOD-d4, 298 K
# Procedure: NMR spectra were recorded by means of a Bruker Biospin FT-NMR AVANCE III HD (600 MHz) spectrometer equipped with a CryoProbe BBO H&F 5 mm in inverse detection. The nominal frequencies were 150.90 MHz for ^13C and 600.13 MHz for ^1H, respectively. For each sample, 1–5 mg were weighed and diluted up to 0.6 mL with a proper solvent in a 5 mm NMR tube; 90° pulse was calibrated for each sample, and standard NMR parameters were used to achieve quantitative results (relaxation delay, 10 s). Proton and carbon chemical shifts are given in parts per million (ppm) versus external TMS and were determined by reference to the solvent residual signals. Typical 2D homo- and heteronuclear techniques were used for assignment, i.e., ^1H,^1H COSY, ^1H,^13C HSQC, ^1H,^13C HMBC. NMR investigations of Ga^3+:L systems were performed in MeOD-d4 by adding small amounts of a Ga(NO3)3 solution (10 μL each) to 1 mM ligand solution (0.6 mL) until reaching the desired metal-to-ligand molar ratio. The complexation reaction is fast, and spectra were registered few minutes after the addition. Two-dimensional ^1H,^13C heteronuclear multiple bond correlation (HMBC) experiments (hmbcgpndqf in Bruker library) were performed via heteronuclear zero and double quantum coherence, optimized on long-range couplings (^3/4JHC = 8 Hz), with no decoupling during acquisition, and gradient pulses were used for selection. The relative percentages of the isomeric forms were estimated on the basis of the NMR data. Particularly, ^1H NMR spectra were acquired in quantitative conditions being D1 (relaxation delay) at least five times the T1 of the slowest relaxing signal of interest. The raw data were Fourier-transformed, and then the processing was performed by zero filling (SI = TD), line broadening (lb 0.3 Hz), accurate phasing and correcting the baseline. The most isolated signals were selected for integration, i.e., the vinyl protons (H-3 and H-4), and an average of the integrated area (A) of H-3 and H-4 was used for relative quantitation, according to the following equation: %Tautomeri=(A(H−3)i+(A(H−4)i)/2/∑i(A(H−3)i+(A(H−4)i)/2×100
# [5] = Spectrophotometric pH titrations of ligands (protonation constants, pKa); assay type: physicochemical; conditions: 298 K; for pKa: aqueous solution (methanol stock diluted in water), calculated from logβ values, * = keto–enol moiety dissociation
# Procedure: (§1) UV–visible spectra were recorded with a JASCO V-570 UV/Vis/NIR spectrophotometer at 298 K in the 250–600 nm spectral range employing quartz cells (1 cm optical path). To perform spectrophotometric titrations, ligands (denoted generally as L in the following) were dissolved in methanol to give a mother solution (2.50 mM), that was then diluted in water in order to obtain a final concentration of 50 μM. The metal/ligand (M:L) solutions were obtained by adding appropriate quantities of Ga(NO3)3 as methanol solutions (5–10 mM) in order to obtain the metal-to-ligand 1:1 molar ratio (L = 50 μM and V = 25 mL). For both L and M:L systems, pH (initial value of about 5) was varied by adding small amounts (<1 μL) of concentrated NaOH (4 M) up to ca. pH 11, thus to consider volume variations negligible. To evaluate the complexation ratio, constant additions of the M solution (10 µL each time, M = 10^–2 M) were dropped into the ligand solution (V = 25 mL, L = 50 μM) using a micropipette in order to reach different M:L molar ratios. A constant ionic strength (NaNO3, 0.1 M) was maintained in all experiments. Spectrophotometric investigations of iron(III) systems were performed in the same conditions; the Fe^3+ solution was freshly prepared in methanol starting from Fe(NO3)3·9H2O. The overall protonation constants (logβqr) and the overall stability constants of metal complexes (logβpqr) were evaluated from spectrophotometric data. The stability constants (βpqr), defined by the following equations:(3) pM^m++qL^l^−+rH^+⇌MpLqHr(mp−lq+r) (4) βpqr=[MpLqHr(mp−lq+r)]/[M^m+]^p·[L^l−]^q·[H^+]^r where L is the ligand in the completely dissociated form and H is proton, were refined using least-squares calculation in HypSpec. The results of least-squares calculation include the standard deviations and correlation coefficients of the refined parameters. The quantities are obtained by performing error propagation calculation from the experimental errors onto the parameters. The stability constant refinement furnishes least-squares estimates of the standard deviation, σ, of the stability constant β. The error on logβ is calculated as follows: σ(logβ) = [log(β + σ) − log(β − σ)]/2.
# [6] = Spectrophotometric pH-metric titrations of Ga^3+:ligand systems (stability constants, pGa, speciation); assay type: physicochemical
# Procedure: as §1
# Hydroxide species, such as [Ga(OH)2]^+, were taken into account for calculations. The hydrolysis constants for Ga^3+ are as follows: logβ1,1,0 = −3.93; logβ2,1,0 = −7.73; logβ3,1,0 = −12.38; logβ4,1,0 = −15.96; logβ32,13,0 = −66.3; logβ3,1,0(s) = −3.54 [43]; pGa is defined as (−log[Ga^3+]free) and is calculated at specific conditions (Ga^3+total = 1 μM, Ltotal = 10 μM, pH 7.4, 25 °C). For the calculation of the iron(III) overall stability constants, the presence of [Fe(OH)]^2+, [Fe(OH)2]^+ and [Fe(OH)3] species was taken into account.
# [7] = HypSpec, spectrophotometric data
compound,measurement,setting,value
"COc1cc(/C=C/C(=O)CC(=O)/C=C/c2ccc(O)c(OC)c2)ccc1O [CUR, Curcumin]",GI50,[1],12.9 µM
CC(=O)N(O)CCCCCNC(=O)CCC(=O)N(O)CCCCCNC(=O)CCC(=O)N(O)CCCCCN [DFOB],pGa,[2],21.6
O=C(O)CCP(=O)(O)CN1CCN(CP(=O)(O)CCC(=O)O)CCN(CP(=O)(O)CCC(=O)O)CC1 [PrP9],pGa,[2],23.1
[Fe+3] [Fe^3+],log K1 binding constant to transferrin,transferrin,22.8
same,log K2 binding constant to transferrin,transferrin,21.7
O=C(/C=C/c1ccc(O)cc1)C(CCCN1C(=O)c2ccccc2C1=O)C(=O)/C=C/c1ccc(O)cc1 [Compound 3],Stability: percentage of the residual ligand after 4 h,"[3]; PBS, pH 7.4, 37 °C in darkness, 4 h",47%
same,Stability ranking (residual ligand after 4 h),"[3]; rank among the 7 ligands, 1 = most stable",6
same,KK (%) amount of diketo form,[4],55%
same,KE (%) amount of keto–enol form,[4]; for 2 includes KE form of the Z isomer (6%),45%
same,logβ011 overall protonation constant,[5]; [7],10.88 (2)
same,logβ012 overall protonation constant,[5]; [7],20.29 (2)
same,logβ013 overall protonation constant,[5]; [7],28.84 (4)
same,pKa,[5]; read-out: pKa1,8.55
same,pKa,[5]; read-out: pKa2,9.41
same,pKa,[5]; read-out: pKa3,10.9
same,log β 112 overall stability constant (Ga^3+),"[6]; 298 K, HypSpec",28.28 (3)
same,log β 124 overall stability constant (Ga^3+),"[6]; 298 K, HypSpec",54.63 (5)
same,"logK11 apparent formation constant (Ga^3+, M:L 1:1)","[6]; 298 K, estimated from logβMLH",7.99
same,"logK12 apparent formation constant (Ga^3+, M:L 1:2)","[6]; 298 K, estimated from logβMLH",14.05
same,Prevailing Species (pH 5.5),"[6]; Ga^3+ complex species, pH 5.5",[Ga(H2L)2]^+
same,Prevailing Species (pH 7.4),"[6]; Ga^3+ complex species, pH 7.4, ** possible formation of gallium hydroxide species",[Ga(H2L)2]^+
same,pGa (−log[Ga^3+]free),"[6]; [Ga^3+]total = 1 μM, [L]total = 10 μM, pH 7.4, 25 °C",20.8
same,GI50,[1],6.21 µM
[Ga+3] [Ga^3+],log K1 binding constant to transferrin,transferrin,20.3
same,log K2 binding constant to transferrin,transferrin,19.3
